Measurements taken from patent US11612595B2, “Compositions and methods for treating rheumatoid arthritis” (Generos Biopharma Ltd., priority 2017, dated 2023).

Columns and labels:
STAT5b SH2 domain = target: T1, STAT5b SH2 domain (Homo sapiens, UniProt P51692); settings: read-out: IC50 against STAT5b SH2 domain EPO peptide binding activity; cited from earlier work
T1 sequence (P51692 1-787): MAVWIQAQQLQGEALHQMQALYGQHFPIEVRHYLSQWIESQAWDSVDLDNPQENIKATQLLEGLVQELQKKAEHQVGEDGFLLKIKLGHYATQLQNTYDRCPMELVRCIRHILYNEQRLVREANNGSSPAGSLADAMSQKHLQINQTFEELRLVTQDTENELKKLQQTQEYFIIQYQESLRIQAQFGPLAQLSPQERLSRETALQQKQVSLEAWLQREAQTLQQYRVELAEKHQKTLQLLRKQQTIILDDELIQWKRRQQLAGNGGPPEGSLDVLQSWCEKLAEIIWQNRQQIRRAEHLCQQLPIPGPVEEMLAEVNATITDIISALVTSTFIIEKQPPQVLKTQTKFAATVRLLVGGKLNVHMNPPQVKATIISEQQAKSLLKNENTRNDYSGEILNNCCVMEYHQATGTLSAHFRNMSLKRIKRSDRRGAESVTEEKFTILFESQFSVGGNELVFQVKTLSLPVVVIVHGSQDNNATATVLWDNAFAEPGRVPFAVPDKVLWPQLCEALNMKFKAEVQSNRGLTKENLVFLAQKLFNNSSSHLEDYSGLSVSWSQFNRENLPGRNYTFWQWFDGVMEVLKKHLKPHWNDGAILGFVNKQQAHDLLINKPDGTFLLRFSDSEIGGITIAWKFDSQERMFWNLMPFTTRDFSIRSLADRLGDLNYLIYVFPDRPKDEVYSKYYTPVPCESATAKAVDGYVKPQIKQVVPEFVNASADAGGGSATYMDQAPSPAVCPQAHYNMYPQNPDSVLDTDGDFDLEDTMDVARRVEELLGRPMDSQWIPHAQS

[1] = weight changes in mouse CIA model; assay type: in vivo, DBA/1J mice
Experimental: FIGS. 7A and 78 show graphs depicting weight changes in five groups of mouse CIA models under different treatment schemes. DBA/1 mice were randomly divided into 9 groups with 10 mice each group. On day 0 and 21, all of them except blank control group were inoculated with 50 ul collagen plus CFA mixture subcutaneously at back flank near tail. The weights of all 90 mice were monitored 3 times a week throughout the experiment.
Eight of nine groups (10 mice in each group) of male DBA/1J mice (age 9-10 weeks. H-2q haplotype) were subject to CIA model induction and then to different treatment schemes. The group of mice without CIA model induction was used as a control (Blank). Specifically, Bovine type II collagen (Chondrex) was mixed with Freund's complete adjuvant (CFA) (Sigma) and injected s.c. to flank near tail of the mice twice (the second injection was made 21 days after the first injection) to create CIA model mice. The eight groups of CIA model mice were separated into four prophylactic groups and four therapeutic groups, with each group subjected to different treatments.
In the four prophylactic groups, daily treatments started from the date when the first CIA induction injection was made. The first of the four prophylactic groups of CIA model mice were treated with 30% PEG300 (containing 4% DMSO-all 30% PEG300 in the application contains 4% DMSO) solution via intraperitoneal injection as controls (Model). The second of the four prophylactic groups of CIA model mice were treated with nicotinohydrazide (Calbiochem) 10 mg/kg in 30% PEG300 solution via intraperitoneal injection (573108 10 mg/kg). The third of the four prophylactic groups of CIA model mice were treated with nicotinohydrazide (Calbiochem) 5 mg/kg in 30% PEG300 solution via intraperitoneal injection (573108 5 mg/kg). The last of the four prophylactic groups of CIA model mice were treated with Tofacitinib (Selleckchem) 5 mg/kg in 30% PEG300 solution via intraperitoneal injection (Tofacitinib 5 mg/kg).
In the four therapeutic groups, daily treatments started from the date when the second CIA induction injection was made. The first of the four therapeutic groups of CIA model mice were treated with 30% PEG300 solution via intraperitoneal injection as controls (Model). The second of the four therapeutic groups of CIA model mice were treated with nicotinohydrazide (Calbiochem) 10 mg/kg in 30% PEG300 solution via intraperitoncal injection (573108 10 mg/kg). The third of the four therapeutic groups of CIA model mice were treated with nicotinohydrazide (Calbiochem) 5 mg/kg in 30% PEG300 solution via intraperitoneal injection (573108 5 mg/kg). The last of the four therapeutic groups of CIA model mice were treated with Tofacitinib (Selleckchem) 5 mg/kg in 30% PEG300 solution via intraperitoncal injection (Tofacitinib 5 mg/kg).
The inventors collected data of the weight, and clinical scores of the mice every 2-3 days and performed statistic analysis. The method used in the statistic analysis was Student's t test, unpaired, two-tailed analysis.

AIA mouse model = AIA mouse model (mBSA-induced knee arthritis); assay type: in vivo, mice (C57BL/6); settings: 10 mg/kg intraperitoneal
Experimental: This example describes a method of RA treatment with pimozide in a AIA mouse model. The right knees of fourteen mice (C57BL/6) were immunized with mBSA injection on the right knee to induce arthritis, while the left knees were used as control. Nine of the mice was then treated with pimozide. Specifically, pimozide was dissolved in DMSO at a concentration of 50 mg/ml, and then diluted in 30% PEG300 (Sigma) for intraperitoneal injection at 10 mg/kg dose. The remaining five mice were treated with vehicle DMSO that is diluted in 30% PEG300 for intraperitoneal injection. After 7 days, the mice were sacrificed and knees were dissected and fixed in 10% formalin and decalcified in 5% formic acid before dehydration and embedding in paraffin followed by standard hematoxylin and eosin (H&E) stain procedure.

[2] = system: Chronic Myeloid Leukemia (CML) cell lines; settings: cited from earlier work
STAT3 = STAT3 (Homo sapiens, UniProt P40763); set-up: IFNα-stimulated STAT1 phosphorylation or LIF-stimulated STAT3 phosphorylation in K562 cells; endogenous in cells; host or cells: K562 cells; settings: K562 cells, 10 μM 1 h pretreatment; cited from earlier work
[3] = prophylactic groups, 5 mg/kg i.p. daily
[4] = prophylactic groups, 10 mg/kg i.p. daily
[5] = therapeutic groups, 5 mg/kg i.p. daily

STAT3, sequence (P40763 whole entry): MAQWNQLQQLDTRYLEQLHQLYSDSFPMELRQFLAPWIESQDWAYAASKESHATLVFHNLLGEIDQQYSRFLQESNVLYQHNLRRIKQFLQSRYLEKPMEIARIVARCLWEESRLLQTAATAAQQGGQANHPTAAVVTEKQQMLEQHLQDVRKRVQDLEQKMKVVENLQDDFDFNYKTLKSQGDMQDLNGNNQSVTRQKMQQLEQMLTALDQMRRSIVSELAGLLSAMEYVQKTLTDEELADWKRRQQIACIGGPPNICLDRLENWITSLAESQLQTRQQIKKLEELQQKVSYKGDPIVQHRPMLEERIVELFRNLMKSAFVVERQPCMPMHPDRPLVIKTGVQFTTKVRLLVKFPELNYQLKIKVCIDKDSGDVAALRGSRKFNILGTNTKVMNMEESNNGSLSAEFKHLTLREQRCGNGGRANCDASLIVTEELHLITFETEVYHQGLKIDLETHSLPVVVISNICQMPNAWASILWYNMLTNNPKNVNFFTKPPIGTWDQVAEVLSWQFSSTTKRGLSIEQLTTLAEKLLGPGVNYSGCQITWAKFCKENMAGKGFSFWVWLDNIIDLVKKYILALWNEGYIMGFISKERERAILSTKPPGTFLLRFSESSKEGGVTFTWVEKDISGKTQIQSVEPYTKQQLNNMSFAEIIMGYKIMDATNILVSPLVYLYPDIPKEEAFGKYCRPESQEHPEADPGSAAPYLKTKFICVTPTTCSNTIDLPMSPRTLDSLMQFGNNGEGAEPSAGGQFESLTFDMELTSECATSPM

Row | SMILES | IC50 (STAT5b SH2 domain) | trend of weight changes, p vs Model [1, 3] | trend of weight changes, p vs Tofacitinib 5 mg/kg [1, 3] | trend of weight changes, p vs Model [1, 4] | trend of weight changes, p vs Tofacitinib 5 mg/kg [1, 4] | trend of weight changes, p vs Model [1, 5] | trend of weight changes, p vs Tofacitinib 5 mg/kg [1, 5] | trend of weight changes, p vs Model ([1]; therapeutic groups, 10 mg/kg i.p. daily) | infiltration of immune cells in knee cavity (H&E staining) (AIA mouse model; after 7 days, vs vehicle) | knee diameter differences (right knee vs left knee) (AIA mouse model; vs vehicle group) | cell cycle arrest and apoptosis [2] | LIF-stimulated STAT3 phosphorylation (STAT3)
1 | O=C(N/N=C/c1coc2ccccc2c1=O)c1cccnc1 [nicotinohydrazide, N′-((4-Oxo-4H-chromen-3-yl)methylene)nicotinohydrazide] | 47 µM | 0.4638 | 0.0136 | 0.32 | 0.0207 | < 0.0001 | 0.0006 | < 0.0001 | – | – | – | –
2 | O=c1[nH]c2ccccc2n1C1CCN(CCCC(c2ccc(F)cc2)c2ccc(F)cc2)CC1 [pimozide, 1-[1-[4,4-bis(4-fluorophenyl)butyl]-4-piperidinyl]-1,3-dihydro-2H-benzimidazole-2-one] | – | – | – | – | – | – | – | – | reduced infiltration of immune cells | significantly smaller | induces | little activity
